Test results: patent US5789382A, “Retro-peptide fibroblast growth factor which blocks FGF receptor” (Georgetown University, priority 1993, dated 1998)
Ends that are not written are not given here.

Legend:
[1] = tested on: human SW-13 cells; assay: growth assay with human SW-13 cells (FIG. 2, FIG. 4); format: cell-based; settings: for inhibition of SW-13 cell growth: amounts added as high as 1,000 μg/ml
Description: FIG. 2 illustrates the results of a growth assay conducted with both a peptide of the present invention (retro-peptide) and the antero-peptide sequence thereof.
FIG. 2 illustrates that both the antero-peptide and the retro-peptide are inhibitory in a growth assay with human SW-13 cells.
FIG. 4 illustrates the difference in effect on SW-13 cell growth between a 10-mer peptide sequence of the formula (SEQ ID NO:6): […]
As may be seen from FIG. 4, the 15-mer sequence has an inhibitive effect on SW-13 cell growth with increasing amount added in μg/ml. This effect becomes almost completely inhibiting in amounts added of about 100 μg/ml and greater.

[2] = tested on: human rhabdomyosarcoma; assay: human rhabdomyosarcoma xenograft in athymic nude mice (FIG. 6); format: in vivo
Description: Animal studies with human rhabdomyosarcoma growing in athymic nude mice were carried out with the 15 mer peptide. Tumors were allowed to grow subcutaneously and peptide (25 mg/kg of body weight) dissolved in saline was injected for eight days daily intraperitoneally. After three weeks the tumor size in a control group treated only with saline solution was 26.6±6.8 mm^2. The tumor size in the peptide-treated animals was 5.4±1.6 mm^2. […] This is illustrated in FIG. 6.
(§1) Human tumor cells (1 million per mouse) were inoculated in 0.1 ml of saline solution into a mammary fat pad of each mouse. Each group of treatment consisted of 10 animals. One day after the inoculation of tumor cells the animals were treated with a single daily intraperitoneal injection of saline solution (control group) or with the 15-mer retropeptide dissolved in saline solution at a dose of 25 mg per kg body weight (peptide group) or 25 mg per kg body weight of pentosanpolysulfate (pentosan polysulfate group). The treatment with peptide was continued for 8 days due to a currently still limited supply of the peptide. The pentosanpolysulfate treatment was continued throughout the whole observation period.
(§2) The mean ± standard error tumor size is 26.6±6.8 mm^2 (control group) and […] (peptide group). This difference is highly significant (p<0.003) as tested by student's t-test.

[3] = water solubility; format: physicochemical
Description: The present retro-peptide is water-soluble and is administered by any route, especially intravenously, subcutaneously, intraperitonially, intramuscularly, orally and rectally. The peptide may be conveniently administered in dextrose 5% saline or in saline solution.

[4] = tested on: human rhabdomyosarcoma; assay: growth inhibition of human rhabdomyosarcoma (in vitro); format: cell-based; settings: same concentration as in the SW-13 assay
[5] = tested on: SW-13 cells; assay: FGF-stimulated colony formation of SW-13 cells (FIG. 3); format: cell-based, human
Description: FIG. 3 illustrates the competitive mechanism of FGF-dependent growth inhibition by a retro-peptide of the present invention.
(§3) FIG. 3 illustrates the competitive mechanism of FGF-dependent growth inhibition by the retro-peptide of the present invention. […] This clearly establishes the specificity of the FGF-receptor inhibition by the present retro-peptide.
In FIG. 3, "Co" refers to a control, while "A" refers to the antero-peptideand "R" refers to the retro-peptide.

[6] = tested on: human melanoma; assay: growth inhibition of human melanoma; format: cell-based; settings: same concentration as in the SW-13 assay
[7] = tested on: normal human cells; assay: FGF-stimulated growth of normal human cells; format: cell-based
[8] = tested on: breast cancer cells; assay: growth of cell lines growing independently from FGF; format: cell-based; settings: such as breast cancer cells
Description: as §3

[9] = tolerability in tumor-bearing mice; format: in vivo, athymic nude mice; settings: 25 mg/kg daily i.p. for 8 days
Description: as §1, §2

With “NH2 --YRSRK--YSSWY-CO2 H [10-mer sequence, reference compound]” as the substance, how does the “inhibition of SW-13 cell growth” value ([1]; FIG. 4) read?
The value was “essentially no such inhibition”.

What about the “inhibition of SW-13 cell growth” value ([1]; FIG. 4, listed as 10-mer) of the same substance?
The value was “loss of activity”.

With “pentosanpolysulfate [reference compound]” as the substance, how does the “action on tumor size” value ([2]; 25 mg/kg daily i.p. throughout the observation period, p<0.05) read?
The value was “significant”.

What does the source list for “RKLAVYWSSYKRSRY [retro-peptide, NH2 --RKLAV--YWSSY--KRSRY--COOH]”?
solubility in water [3]: water-soluble; effectiveness against human rhabdomyosarcoma [4]: effective at the same concentration; mean ± standard error tumor size ([2]; after 24 days of observation, 25 mg/kg daily i.p. for 8 days, saline control 26.6±6.8, p<0.003): 5.0±1.6 mm^2; tumor size ([2]; after three weeks, 25 mg/kg daily i.p. for eight days, saline control 26.6±6.8, p<0.003): 5.4±1.6 mm^2; dose-response curve of FGF-stimulated colony formation of SW-13 cells ([5]; competitive mechanism): shifted to the right without affecting the maximum achieved; effectiveness against human melanoma [6]: effective at the same concentration; inhibition in growth assay with human SW-13 cells ([1]; FIG. 2): inhibitory; potency in SW-13 growth assay relative to the antero-peptide ([1]; FIG. 2, retro-peptide versus antero-peptide): much more potent; FGF-stimulated growth of normal human cells [7]: blocks FGF-stimulated growth; inhibition of cell lines growing independently from FGF [8]: neither of the antero-peptide nor retro-peptide inhibit; body weight and signs of illness [9]: did not lose weight or show any other signs of major illness; tolerability [9]: tolerated the peptide well

Which results are given for “YRSRKYSSWYVALKR [antero-peptide, NH2 --YRSRK--YSSWY--VALKR--COOH, reference compound]”?
potency in FGF-stimulated SW-13 colony formation relative to the retro-peptide ([5]; antero-peptide versus retro-peptide): significantly less potent; inhibition in growth assay with human SW-13 cells ([1]; FIG. 2): inhibitory; inhibition of cell lines growing independently from FGF [8]: neither of the antero-peptide nor retro-peptide inhibit

Which “amount added at which inhibition of SW-13 cell growth becomes almost complete” value ([1]; FIG. 4, about 100 μg/ml and greater) does the source give for “NH2 --YRSRK--YSSWY-VALKR--CO2 H [15-mer sequence]” here?
Its value is “about 100 μg/ml”.
